From patent publication US10913773B2, “Bicyclic peptidyl inhibitor of tumor necrosis factor-alpha” (Ohio State Innovation Foundation, priority 2016, dated 2021)

Experiments:
[1] = tested on: TNFα-induced cell death in WEHI-13VAR fibroblasts (recombinant human TNFα); format: cell-based
Experimental: (§1) WEHI-13VAR fibroblasts were purchased from American Type Culture Collection (ATCC). For maintenance, cells were grown in full medium as RPMI-1640 supplemented with 10% FBS and 1% Abs. For toxicity assay, cells were seeded in a 96-well plate at a density of 5×10^3 cells/well in 100 μL of RPMI-1640/1% Abs supplemented with 10% or 5% FBS and allowed to grow overnight. Varying concentrations of recombinant human TNFα (0-250 ng/mL) or commercial mouse TNFα were (0-100 pg/mL) were incubated with 10 μM peptide and actinomycin D (1 μg/mL) in 100 μL of corresponding growth medium for 1 h at 37° C. Next, the medium in the 96-well plate was removed and replaced with the above fresh mixture and the cells were incubated overnight. Next day, 10 μL of the 3-(4, 5-dimethylthiazolyl-2)-2, 5-diphenyltetrazolium bromide (MTT, final concentration 0.5 mg/ml) was added to each well and incubated at 37° C. for 3 h, following by the addition of 100 μL of the MTT solubilization solution. The plate was kept in the incubator overnight to let the formazan crystals to completely dissolve, and the absorbance at 570 nm was measured on a TECAN plate reader. The LD50 was obtained as plotting the viability as a function of the TNFα concentration.
One of the biological functions of TNFα is to induce death signaling. Inhibitors against the TNFα-TNFR interaction are expected to protect cells against TNFα induced cell death. Therefore, anticachexin C1, C1-74, and C1-74-2 through C1-74-5 were compared for their ability to protect cultured WEHI-13 VAR fibroblasts, which are highly sensitive to TNFα in the presence of actinomycin-D, against TNFα-induced cell death (Khabar, K. S. A.; et al., “WEHI-13VAR: A Stable and Sensitive Variant of WEHI 164 Clone 13 Fibrosarcoma for Tumor Necrosis Factor Bioassay.” Immunol. Lett. 1995, 46:107-110). The cells were treated with a fixed concentration of peptides (10 μM) and varying concentrations of TNFα (0-1 μM), and the fraction of live cells was quantitated by the 3-(4,5-dimethylthiazol-2-yl)-2,5-diphenyltetrazolium bromide (MTT) assay. […] The MTT assay was also conducted at a fixed concentration of TNFα (0.4 ng/mL) but varying concentrations of peptides (0-10 μM).

[2] = tested on: murine TNFα-induced cell death in WEHI-13VAR fibroblasts; experiment: MTT assay: protection of WEHI-13VAR fibroblasts against murine TNFα-induced cell death; format: cell-based; details: murine TNFα with 10 μM peptide; no inhibitor 10 ng/mL
Experimental: as §1
TNFα inhibitor C1-74-2 was tested for its inhibitory activity against murine TNFα, a necessary step before testing C1-74-2 in a mouse model of inflammatory bowel disease.

[3] = tested on: TNFα-induced JNK phosphorylation; experiment: Immunoblot of TNFα-induced JNK phosphorylation in WEHI-13VAR cells; format: cell-based; details: TNFα with increasing peptide concentrations (0-20 μM); total JNK unchanged
Experimental: WEHI-13VAR cells were cultured in full growth media (RPMI, 5% FBS, 1% Pen/Strep) in 12-well plates to reach 80% confluence. TNFα (5 ng/mL final concentration) and varying concentrations of peptide inhibitor (0-6 μM) were pre-incubated in 0.5 mL of the growth medium for 30 min in the CO2 incubator. The mixture was then used to treat the cells at 37° C. and in the presence of 5% CO2. After 1.5 h, the solution was removed and the cells were washed with cold DPBS twice. The cells were lysed in 50 μL of lysis buffer (50 mM Tris, pH 7.4, 150 mM NaCl, 1% NP-40, and 5% glycerol) containing a protease inhibitor cocktail (Complete mini, Roche, product number 04693159001) and a phosphatase inhibitor cocktail (PhosSTOP, Roche, product number 04906845001). After incubation on ice for 30 min, the cell lysate was centrifuged at 15,000 rpm for 10 min in a microcentrifuge. An equal volume of 2×SDS-loading buffer was added to the supernatant. The total cellular proteins were separated by SDS-PAGE and transferred electrophoretically to a nitrocellulose membrane, which was subsequently immunoblotted using anti-JNK and anti-p-JNK Thr183/Tyr185 antibodies (both from Santa Cruz Biotechnology). The same samples were also separated on a different SDS-PAGE gel and stained by Coomassie brilliant blue to check the sample loading in all lanes. […]

Serum stability test = format: in vitro ADME, human; details: human, diluted human serum (25%), supernatant after centrifugation; 8 h at 37° C.; read-out: Degradation in human serum
Experimental: Diluted human serum (25%) was centrifuged at 15,000 rpm for 10 min, and the supernatant was collected. A peptide stock solution was diluted into the supernatant to a final concentration of 5 μM and incubated at 37° C. At various time points (0-8 h), 200-μL aliquots were withdrawn and mixed with 50 μL of 15% trichloroacetic acid and 200 μL of acetonitrile. After incubation at 4° C. overnight, the mixture was centrifuged at 15,000 rpm for 10 min in a microcentrifuge, and the supernatant was analyzed by reversed-phase HPLC equipped with an analytical C18 column (Waters). The amount of remaining intact peptide (%, relative that of time zero control) was determined by integrating the area underneath the peptide peak (monitored at 214 nm).

[4] = target: T1, TNFα (infliximab binding) (Homo sapiens, UniProt P01375); experiment: Binding of infliximab-HRP conjugate to immobilized TNFα; details: 0, 2 or 6 μM peptide
T1 construct: ybbR tag (13 aa) (N); made in house; host or cells: Escherichia coli
T1 sequence (P01375 77-233 limits assumed): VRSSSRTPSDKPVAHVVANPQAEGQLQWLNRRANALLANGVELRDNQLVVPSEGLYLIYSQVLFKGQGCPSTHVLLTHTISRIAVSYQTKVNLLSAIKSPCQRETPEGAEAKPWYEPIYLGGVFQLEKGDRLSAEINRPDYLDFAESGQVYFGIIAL
Experimental: FIG. 6A is a graph showing the competition for binding to TNFα (2 μM) between C1-74-2 (0-15 μM) and C1-NNNK(FITC) (100 nM) as monitored by FA. FIG. 6B is a graph showing binding of infliximab-HRP conjugate to immobilized TNFα in the absence and presence of C1-74-2 (0, 2, or 6 μM).
The four peptides were tested for inhibition of the TNFα-TNFR1 interaction by using the ELISA assay.

CC(=O)[C@@H]1CCCN(C(=O)[C@@H](Cc2c[nH]cn2)NC(=O)C(N)C(C)C)C1 (stereo partly drawn) [Compound C1-74-2]
EC50 [1]: ~50 nM
Concentration giving almost complete protection ([1]; 0.4 ng/mL TNFα): ≥ 100 nM
LD50 value of TNFα [2]: 31 ng/mL
p-JNK level [3]: decreased with the C1-74-2 concentration
metabolised at 8 h, 5 μM (Serum stability test): ~15%
Inhibition of infliximab binding to surface-immobilized TNFα [4]: inhibited the binding of anti-TNFα antibody infliximab to a surface-immobilized TNFα in a concentration-dependent manner
